Data reported in PubChem BioAssay AID330 (DTP/NCI, 2004).
Where “and” joins values, the source holds several entries; their conditions need not be identical. Equal values may be shown once. Toxic doses and inconclusive results are not listed.

Tested on: P388 leukemia ip, CD2F1 mice, survival T/C
Assay: NCI In Vivo Anticancer Drug Screen. Data for tumor model P388 Leukemia (intraperitoneal) in CD2F1 (CDF1) mice
Conditions: endpoint: median survival time, higher = longer survival
How it was run: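 Mice carrying the transplanted tumor received test compound or vehicle. Survival was recorded in each group, and the value is the treated-group measurement divided by that of the vehicle-treated control group.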

## COc1cccc2c1C(=O)c1c(O)c3c(c(O)c1C2=O)C[C@@](O)(C(=O)CO)C[C@@H]3OC1CC(N)C(O)C(C)O1 (stereo partly drawn)
dose: 0.04 mg/kg/injection, schedule: Q04DX003 (ip), vehicle: saline
  T/C: 116 % of control
dose: 0.04 mg/kg/injection, schedule: Q04DX003 (ip), vehicle: water
  T/C: 115 % of control
dose: 0.06 mg/kg/injection, schedule: Q01DX005 (sc), vehicle: water
  T/C: 100 % of control
dose: 0.06 mg/kg/injection, schedule: Q03HX008 (ip), vehicle: saline
  T/C: 114 % of control
dose: 0.06 mg/kg/injection, schedule: Q04DX003 (ip), vehicle: water
  T/C: 122 % of control
dose: 0.1 mg/kg/injection, schedule: Q04DX003 (ip), vehicle: water
  T/C: 121 % of control
dose: 0.12 mg/kg/injection, schedule: Q01DX005 (sc), vehicle: water
  T/C: 101 % of control
dose: 0.13 mg/kg/injection, schedule: Q01DX009 (ip), vehicle: water
  T/C: 162 % of control
dose: 0.13 mg/kg/injection, schedule: Q03HX008 (ip), vehicle: saline
  T/C: 116 % of control
dose: 0.25 mg/kg/injection, schedule: Q01DX001 (ip), vehicle: Klucel (hydroxypropylcellulose) (HPC)
  T/C: 108 % of control
dose: 0.25 mg/kg/injection, schedule: Q01DX001 (ip), vehicle: saline with Tween-80
  T/C: 112 % of control
dose: 0.25 mg/kg/injection, schedule: Q01DX001 (ip), vehicle: saline
  T/C: 105 % of control
dose: 0.25 mg/kg/injection, schedule: Q01DX005 (ip), vehicle: water
  T/C: 153 % of control and 160 % of control and 161 % of control
dose: 0.25 mg/kg/injection, schedule: Q01DX005 (sc), vehicle: water
  T/C: 103 % of control
dose: 0.3 mg/kg/injection, schedule: Q04DX003 (ip), vehicle: water
  T/C: 153 % of control
dose: 0.38 mg/kg/injection, schedule: Q01DX009 (ip), vehicle: water
  T/C: 151 % of control
dose: 0.38 mg/kg/injection, schedule: Q04DX003 (ip), vehicle: water
  T/C: 103 % of control
dose: 0.44 mg/kg/injection, schedule: Q04DX003 (ip), vehicle: saline
  T/C: 158 % of control
dose: 0.5 mg/kg/injection, schedule: Q01DX001 (ip), vehicle: Klucel (hydroxypropylcellulose) (HPC)
  T/C: 112 % of control
dose: 0.5 mg/kg/injection, schedule: Q01DX001 (ip), vehicle: saline with Tween-80
  T/C: 115 % of control
dose: 0.5 mg/kg/injection, schedule: Q01DX005 (oral), vehicle: water
  T/C: 108 % of control
dose: 0.5 mg/kg/injection, schedule: Q01DX005 (sc), vehicle: water
  T/C: 108 % of control
dose: 0.58 mg/kg/injection, schedule: Q04DX003 (ip), vehicle: saline
  T/C: 159 % of control
dose: 0.62 mg/kg/injection, schedule: Q01DX001 (ip), vehicle: water
  T/C: 159 % of control
dose: 0.63 mg/kg/injection, schedule: Q01DX001 (ip), vehicle: water
  T/C: 154 % of control
dose: 0.75 mg/kg/injection, schedule: Q04DX003 (ip), vehicle: water
  T/C: 118 % of control
dose: 0.97 mg/kg/injection, schedule: Q04DX002 (ip), vehicle: saline
  T/C: 157 % of control and 160 % of control
dose: 0.97 mg/kg/injection, schedule: Q04DX003 (ip), vehicle: water
  T/C: 163 % of control
dose: 1.0 mg/kg/injection, schedule: Q01DX001 (ip), vehicle: Klucel (hydroxypropylcellulose) (HPC)
  T/C: 110 % of control
dose: 1.0 mg/kg/injection, schedule: Q01DX001 (ip), vehicle: saline with Tween-80
  T/C: 119 % of control
dose: 1.0 mg/kg/injection, schedule: Q01DX001 (iv), vehicle: saline
  T/C: 113 % of control
dose: 1.0 mg/kg/injection, schedule: Q01DX005 (oral), vehicle: water
  T/C: 112 % of control
dose: 1.0 mg/kg/injection, schedule: Q01DX005 (sc), vehicle: water
  T/C: 113 % of control
dose: 1.0 mg/kg/injection, schedule: Q04DX003 (iv), vehicle: saline
  T/C: 100 % of control
dose: 1.04 mg/kg/injection, schedule: Q04DX002 (ip), vehicle: saline
  T/C: 161 % of control
dose: 1.08 mg/kg/injection, schedule: Q04DX003 (ip), vehicle: saline
  T/C: 159 % of control
dose: 1.3 mg/kg/injection, schedule: Q01DX001 (ip), vehicle: water
  T/C: 156 % of control
dose: 1.5 mg/kg/injection, schedule: Q04DX003 (ip), vehicle: water
  T/C: 117 % of control and 120 % of control
dose: 1.8 mg/kg/injection, schedule: Q01DX001 (ip), vehicle: saline
  T/C: 154 % of control
dose: 2.0 mg/kg/injection, schedule: Q01DX001 (ip), vehicle: DMSO
  T/C: 157 % of control
dose: 2.0 mg/kg/injection, schedule: Q01DX001 (ip), vehicle: Klucel (hydroxypropylcellulose) (HPC)
  T/C: 122 % of control
dose: 2.0 mg/kg/injection, schedule: Q01DX001 (iv), vehicle: saline
  T/C: 108 % of control
dose: 2.0 mg/kg/injection, schedule: Q01DX005 (oral), vehicle: water
  T/C: 104 % of control
dose: 2.0 mg/kg/injection, schedule: Q03HX008 (ip), vehicle: saline
  T/C: 162 % of control
dose: 2.0 mg/kg/injection, schedule: Q04DX003 (iv), vehicle: saline
  T/C: 114 % of control
dose: 2.1 mg/kg/injection, schedule: Q01DX004 (ip), vehicle: saline
  T/C: 161 % of control
dose: 2.59 mg/kg/injection, schedule: Q01DX001 (ip), vehicle: saline
  T/C: 160 % of control
dose: 3.0 mg/kg/injection, schedule: Q01DX001 (ip), vehicle: saline
  T/C: 154 % of control
dose: 3.0 mg/kg/injection, schedule: Q04DX003 (ip), vehicle: water
  T/C: 120 % of control
dose: 3.7 mg/kg/injection, schedule: Q01DX001 (ip), vehicle: saline
  T/C: 153 % of control
dose: 4.0 mg/kg/injection, schedule: Q01DX001 (ip), vehicle: DMSO
  T/C: 162 % of control
dose: 4.0 mg/kg/injection, schedule: Q01DX001 (ip), vehicle: saline with Tween-80
  T/C: 122 % of control
dose: 4.0 mg/kg/injection, schedule: Q01DX001 (iv), vehicle: saline
  T/C: 123 % of control
dose: 4.0 mg/kg/injection, schedule: Q01DX005 (oral), vehicle: water
  T/C: 105 % of control
dose: 4.5 mg/kg/injection, schedule: Q04DX003 (iv), vehicle: saline
  T/C: 163 % of control
dose: 4.75 mg/kg/injection, schedule: Q01DX001 (ip), vehicle: saline
  T/C: 163 % of control
dose: 5.0 mg/kg/injection, schedule: Q01DX009 (ip), vehicle: saline
  T/C: 98 % of control and 105 % of control
dose: 5.4 mg/kg/injection, schedule: Q04DX003 (ip), vehicle: saline
  T/C: 150 % of control
dose: 5.4 mg/kg/injection, schedule: Q04DX003 (ip), vehicle: water
  T/C: 115 % of control
dose: 6.0 mg/kg/injection, schedule: Q04DX003 (ip), vehicle: water
  T/C: 154 % of control
dose: 6.0 mg/kg/injection, schedule: Q04DX003 (oral), vehicle: saline
  T/C: 98 % of control
dose: 6.33 mg/kg/injection, schedule: Q01DX001 (iv), vehicle: saline
  T/C: 116 % of control
dose: 8.0 mg/kg/injection, schedule: Q01DX001 (oral), vehicle: saline
  T/C: 98 % of control
dose: 8.0 mg/kg/injection, schedule: Q01DX005 (oral), vehicle: water
  T/C: 107 % of control
dose: 8.0 mg/kg/injection, schedule: Q04DX002 (ip), vehicle: saline
  T/C: 108 % of control
dose: 10.0 mg/kg/injection, schedule: Q04DX003 (oral), vehicle: saline
  T/C: 105 % of control
dose: 11.25 mg/kg/injection, schedule: Q01DX001 (iv), vehicle: saline
  T/C: 156 % of control
dose: 12.0 mg/kg/injection, schedule: Q01DX001 (oral), vehicle: saline
  T/C: 106 % of control
dose: 15.0 mg/kg/injection, schedule: Q04DX003 (iv), vehicle: saline
  T/C: 153 % of control
dose: 16.0 mg/kg/injection, schedule: Q01DX001 (ip), vehicle: saline with Tween-80
  T/C: 151 % of control
dose: 16.0 mg/kg/injection, schedule: Q01DX001 (oral), vehicle: saline
  T/C: 100 % of control
dose: 16.0 mg/kg/injection, schedule: Q01DX005 (oral), vehicle: water
  T/C: 103 % of control
dose: 16.0 mg/kg/injection, schedule: Q04DX003 (iv), vehicle: saline
  T/C: 103 % of control
dose: 16.7 mg/kg/injection, schedule: Q04DX003 (oral), vehicle: saline
  T/C: 107 % of control and 112 % of control
dose: 17.5 mg/kg/injection, schedule: Q01DX001 (ip), vehicle: saline
  T/C: 150 % of control
dose: 20.0 mg/kg/injection, schedule: Q01DX001 (oral), vehicle: saline
  T/C: 103 % of control
dose: 27.8 mg/kg/injection, schedule: Q04DX003 (oral), vehicle: saline
  T/C: 100 % of control and 106 % of control
dose: 32.0 mg/kg/injection, schedule: Q01DX001 (ip), vehicle: Klucel (hydroxypropylcellulose) (HPC)
  T/C: 112 % of control
dose: 32.0 mg/kg/injection, schedule: Q01DX001 (ip), vehicle: saline with Tween-80
  T/C: 161 % of control
dose: 32.0 mg/kg/injection, schedule: Q01DX001 (oral), vehicle: saline
  T/C: 100 % of control
dose: 33.3 mg/kg/injection, schedule: Q01DX001 (oral), vehicle: saline
  T/C: 99 % of control and 106 % of control
dose: 46.3 mg/kg/injection, schedule: Q04DX003 (oral), vehicle: saline
  T/C: 103 % of control and 112 % of control
dose: 64.0 mg/kg/injection, schedule: Q01DX001 (oral), vehicle: saline
  T/C: 107 % of control
dose: 77.2 mg/kg/injection, schedule: Q04DX003 (oral), vehicle: saline
  T/C: 101 % of control
dose: 92.6 mg/kg/injection, schedule: Q01DX001 (oral), vehicle: saline
  T/C: 106 % of control
dose: 128.0 mg/kg/injection, schedule: Q01DX001 (oral), vehicle: saline
  T/C: 100 % of control
dose: 128.6 mg/kg/injection, schedule: Q04DX003 (oral), vehicle: saline
  T/C: 99 % of control
dose: 154.3 mg/kg/injection, schedule: Q01DX001 (oral), vehicle: saline
  T/C: 101 % of control
